Reference: patent publication US11230593B2, “Compositions and methods for treating and preventing influenza” (VISTERRA, INC., priority 2019, dated 2022)
Read-outs that look alike come from different tables or passages of the source.

Experiments:
[1] = system: A/Michigan/45/2015 (H1N1); experiment: microbe, parasite or virus in culture; format: cell-based, Influenza A
[2] = system: A/Hong Kong/4801/2014 (H3N2); experiment: microbe, parasite or virus in culture; format: cell-based, Influenza A
[3] = system: A/California/04/2009 (H1N1); experiment: microbe, parasite or virus in culture; format: cell-based; settings: Influenza A virus
[4] = in vivo, cited from earlier work
[5] = system: A/PR/8/1934 (H1N1) (wild-type); experiment: microbe, parasite or virus in culture; format: cell-based; settings: Influenza A virus
[6] = system: MDCK cells
[7] = read-out: EC50 (μM) - Replicate 1
[8] = read-out: EC50 (μM) - Replicate 2

## CCC(CC)[C@H](NC(C)=O)[C@@H]1[C@H](O)[C@@H](C(=O)O)C[C@H]1N=C(N)N.O.O.O [Peramivir (PER), Peramivir trihydrate]
[1]; [7]
  EC50: 0.01 µM
[1]; [8]
  EC50: < 0.006 µM
[2]
  EC50: the most potent NAI
[2]; read-out: EC50
  EC50: 57 nM

## CC(=O)N[C@H]1[C@H]([C@H](O)[C@H](O)CO)OC(C(=O)O)=C[C@@H]1N=C(N)N [Zanamivir (ZAN), Zanamivir]
[1]; Influenza A virus, H1N1, MDCK, read-out: EC50 (μM) - Replicate 1
  EC50: 0.06 µM
[1]; Influenza A virus, H1N1, MDCK, read-out: EC50 (μM) - Replicate 2
  EC50: 0.034 µM
[2]; Influenza A virus, H3N2, 40 h
  EC50: 2600 nM

## O=C1c2c(O)c(=O)ccn2N([C@@H]2c3ccccc3SCc3c2ccc(F)c3F)[C@@H]2COCCN12 [baloxavir, Baloxavir]
[3]
  EC50: 1 nM
[4]; 40 mg
  Cmax: 96.4 ng/mL
[4]; 80 mg
  Cmax: 107 ng/mL
[2]; Influenza A virus, H3N2
  EC50: 0.8 nM
[5]
  EC50: ~1 nM

## Oseltamivir acid [Oseltamivir (OSE)]
[1]; [7]
  EC50: 0.18 µM
[1]; [8]
  EC50: 0.024 µM
[2]; read-out: EC50
  EC50: 760 nM
[6]
  CC50: >50 µg/mL
